Reference: US20250109343A1, “CORROSION INHIBITOR” (INNOSPEC LIMITED, priority 2022, published 2025)

Legend:
[1] = Linear Polarisation Resistance (LPR) Test, Example 30, synthetic brine composition 1 or 2
[2] = LPR test of Example 31, variety of brines and brine/depolarised kerosene fluids
Experimental: The LPR test was carried out using the corrosion inhibitor of Example 1. The LPR test was carried out using the same conditions as the LPR test of Example 30 except for the composition of the corrosive fluid, the temperature, and the dose of the corrosion inhibitor.

[3] = brine composition 1, dose 40 ppm of product, one addition, time 19.9-20.1 hr, 60° C., constant CO2 sparge
[4] = brine composition 2, dose 40* ppm, four additions each of 10 ppm, time 25.3-28.8 hr, 60° C., constant CO2 sparge
[5] = Test 1: brine composition 1 (Table 6), 60 ° C., dose 50 ppm, 4 hours
[6] = Test 3: brine composition 3 and depolarised kerosene 90:10 volume ratio, 82 ° C., dose 60 ppm, 5 hours
[7] = Test 4: brine composition 4 and depolarised kerosene 90:10 volume ratio, 82 ° C., dose 60 ppm, 5 hours
[8] = Test 5: brine composition 5 and depolarised kerosene 90:10 volume ratio, 82 ° C., dose 60 ppm, 5 hours
[9] = Test 6: brine composition 6 and depolarised kerosene 90:10 volume ratio, 82 ° C., dose 60 ppm, 5 hours

Substance	Corrosion protection [1]	Corrosion rate [1]	further results
disodium 2-octen-1-ylsuccinate [Example 5]	–	–	Corrosion protection [1, 3]: 89%; Corrosion rate [1, 3]: 0.46 mmpy
potassium PEG200 2-octen-1-yI succinate [Example 21]	–	–	Corrosion protection [1, 4]: 59%; Corrosion rate [1, 4]: 2.24 mmpy
sodium 1,6-hexanediol dodecenyl succinate [Example 15]	41%	1.68 mmpy	–
sodium 1-hexanol dodecenyl succinate [Example 10]	92%	0.29 mmpy	–
sodium 2-ethyl-1,3-hexanediol dodecenyl succinate [Example 9]	51%	2.02 mmpy	–
sodium 3-dimethylaminopropylamine dodecenyl succinamide [Example 13]	46%	1.73 mmpy	–
sodium PEG200 2-octen-1-ylsuccinate [Example 1]	99%	0.03 mmpy	Corrosion protection [2, 5]: 96%; Corrosion rate [2, 5]: 0.1320 mmpy; Corrosion protection ([2]; Test 2: brine composition 2 (Table 6), 60 ° C., dose 50 ppm, 4 hours): 96%; Corrosion protection [2, 6]: 99%; Corrosion rate [2, 6]: 0.0358 mmpy; Corrosion protection [2, 7]: 98%; Corrosion rate [2, 7]: 0.0833 mmpy; Corrosion protection [2, 8]: 96%; Corrosion rate [2, 8]: 0.1387 mmpy; Corrosion protection [2, 9]: 95%; Corrosion rate [2, 9]: 0.1646 mmpy; Corrosion inhibition, result in words ([2]; variety of brines and brine/hydrocarbon emulsions): effective corrosion inhibitor
sodium benzyl alcohol dodecenyl succinate [Example 8]	96%	0.14 mmpy	–
sodium diethanolamine dodecenylsuccinamide [Example 4]	99%	0.06 mmpy	–
sodium dodecanol phthalate [Example 26]	99%	–	–
sodium furfuryl alcohol dodecenyl succinic anhydride [Example 28]	99%	0.04 mmpy	–
triethanolamine PEG200 2-octen-1-yl succinate [Example 22]	68%	2.44 mmpy	–
